In DBAASP:
Converted amounts (≈) assume the structure as drawn. Blank lines part the entries; values can stand above or below the compound they belong to.

How the values were obtained:
Experiment in all cases: ≥ marks a high value that may be exact or a test limit, other limits are often not marked, values filed in µg/mL are converted to µM
[1] = test system: Escherichia coli ATCC 8739
Bacillus subtilis = test system: Bacillus subtilis
Pseudomonas aeruginosa = test system: Pseudomonas aeruginosa
[2] = test system: Staphylococcus epidermidis
[3] = test system: Staphylococcus aureus ATCC 25923
[4] = test system: Escherichia coli ATCC 25922
Klebsiella pneumoniae = test system: Klebsiella pneumoniae
[5] = test system: Pseudomonas aeruginosa ATCC 27853
[6] = test system: Bacillus subtilis KCTC 3068
[7] = test system: Escherichia coli KCTC 1682
[8] = test system: Pseudomonas aeruginosa KCTC 1637
[9] = test system: Salmonella typhimurium KCTC 1926
[10] = test system: Staphylococcus aureus KCTC 1621
[11] = test system: Staphylococcus epidermidis KCTC 1917
[12] = test system: Escherichia coli ATCC 25726
[13] = test system: Candida albicans ATCC 90028
[14] = test system: Staphylococcus aureus ATCC 43300
[15] = test system: Staphylococcus aureus ATCC 6538

MIC [1]: 29.6 µM (≈ 64 µg/mL)
Structure (SMILES): CC[C@H](C)[C@H](NC(=O)[C@H](CCCCN)NC(=O)[C@H](CO)NC(=O)[C@H](C)NC(=O)[C@@H](NC(=O)[C@H](CCCN=C(N)N)NC(=O)[C@H](CC(=O)O)NC(=O)[C@H](CC(C)C)NC(=O)[C@H](CC(C)C)NC(=O)[C@H](CCCCN)NC(=O)[C@H](CC(C)C)NC(=O)[C@@H](NC(=O)[C@@H](NC(=O)[C@H](CC(N)=O)NC(=O)[C@H](CC(N)=O)NC(=O)[C@@H](NC(=O)[C@H](CCCCN)NC(=O)[C@H](CCCCN)NC(=O)[C@@H]1CCCN1)[C@@H](C)CC)[C@@H](C)O)[C@@H](C)CC)C(C)C)C(=O)O [PKKINNTILKLLDRVASKI]

MIC (Bacillus subtilis): 30 µM (≈ 31.5 µg/mL)
MIC [1]: 30 µM (≈ 31.5 µg/mL)
MIC (Pseudomonas aeruginosa): 30 µM (≈ 31.5 µg/mL)
MIC [2]: ≥ 60 µM
Structure (SMILES): CC(C)C[C@H](NC(=O)[C@H](CCCCN)NC(=O)[C@H](Cc1c[nH]c2ccccc12)NC(=O)[C@H](C)N)C(=O)N[C@@H](Cc1ccccc1)C(=O)N[C@@H](CC(=O)O)C(=O)N[C@@H](CC(=O)O)C(=O)NCC(=O)N[C@H](C(=O)O)C(C)C [AWKLFDDGV]

MIC [1]: ≥ 111 µM
MIC [3]: 111 µM (≈ 256 µg/mL)
Structure (SMILES): CC[C@H](C)[C@H](NC(=O)[C@H](CCCCN)NC(=O)[C@H](CO)NC(=O)[C@H](CO)NC(=O)[C@H](CC(C)C)NC(=O)[C@H](CCCCN)NC(=O)[C@H](CCCCN)NC(=O)[C@H](CC(C)C)NC(=O)[C@H](CC(C)C)NC(=O)[C@H](CCCCN)NC(=O)[C@H](CCC(N)=O)NC(=O)[C@H](Cc1ccc(O)cc1)NC(=O)[C@H](Cc1ccccc1)NC(=O)[C@H](CCC(N)=O)NC(=O)[C@H](CO)NC(=O)[C@H](CCC(=O)O)NC(=O)[C@H](CCCN=C(N)N)NC(=O)[C@H](CC(N)=O)NC(=O)[C@@H]1CCCN1)C(=O)O [PNRESQFYQKLLKKLSSKI]

MIC [4]: 8.84 µM (≈ 18.4 µg/mL)
MIC [1]: 4.42 µM (≈ 9.2 µg/mL)
MIC (Klebsiella pneumoniae): 8.84 µM (≈ 18.4 µg/mL)
MIC [5]: 8.84 µM (≈ 18.4 µg/mL)
Structure (SMILES): CC[C@H](C)[C@H](NC(=O)[C@H](CCCCN)NC(=O)[C@H](CCCN=C(N)N)NC(=O)CNC(=O)[C@H](CC(C)C)NC(=O)[C@H](CCCN=C(N)N)NC(=O)[C@H](CCCN=C(N)N)NC(=O)[C@H](CC(C)C)NC(=O)CNC(=O)CNC(C)=O)C(=O)N[C@@H](CC(C)C)C(=O)N[C@@H](CCCN=C(N)N)C(=O)N[C@@H](C)C(=O)N[C@H](C(=O)N[C@@H](CCCCN)C(=O)N[C@@H](CCCCN)C(=O)N[C@@H](Cc1ccc(O)cc1)C(=O)NCC(N)=O)C(C)C [GGLRRLGRKILRAVKKYG]

MIC [6]: 1 µM (≈ 2.3 µg/mL)
MIC [7]: 2 µM (≈ 4.6 µg/mL)
MIC [8]: 2 µM (≈ 4.6 µg/mL)
MIC [9]: 1 µM (≈ 2.3 µg/mL)
MIC [10]: 2 µM (≈ 4.6 µg/mL)
MIC [11]: 1 µM (≈ 2.3 µg/mL)
Structure (SMILES): CC[C@H](C)[C@H](NC(=O)[C@H](CCCCN)NC(=O)[C@H](Cc1c[nH]c2ccccc12)NC(=O)[C@H](Cc1ccccc1)NC(=O)[C@H](CC(C)C)NC(=O)[C@H](CCCCN)NC(=O)[C@H](CCCCN)NC(=O)[C@@H](N)CCCCN)C(=O)N1CCC[C@H]1C(=O)N[C@@H](CCCCN)C(=O)N[C@@H](Cc1ccccc1)C(=O)N[C@@H](CC(C)C)C(=O)N[C@@H](Cc1cnc[nH]1)C(=O)N[C@@H](CC(C)C)C(=O)N[C@@H](C)C(=O)N[C@@H](CCCCN)C(=O)N[C@@H](CCCCN)C(=O)N[C@@H](Cc1ccccc1)C(N)=O [KKKLFWKIPKFLHLAKKF]

MIC [6]: 8 µM (≈ 15.9 µg/mL)
MIC [7]: 4 µM (≈ 7.93 µg/mL)
MIC [8]: 16 µM (≈ 31.7 µg/mL)
MIC [9]: 2 µM (≈ 3.97 µg/mL)
MIC [10]: 2 µM (≈ 3.97 µg/mL)
MIC [11]: 4 µM (≈ 7.93 µg/mL)
Structure (SMILES): CC(C)C[C@H](NC(=O)[C@H](Cc1c[nH]c2ccccc12)NC(=O)[C@H](CCCN=C(N)N)NC(=O)[C@H](CCCCN)NC(=O)[C@H](Cc1c[nH]c2ccccc12)NC(=O)[C@H](CCCN=C(N)N)NC(=O)[C@H](CCC(N)=O)NC(=O)[C@@H](NC(=O)[C@H](Cc1c[nH]c2ccccc12)NC(=O)[C@H](CCCN=C(N)N)NC(=O)[C@H](CCCCN)NC(=O)[C@@H](N)Cc1c[nH]c2ccccc12)C(C)C)C(=O)N[C@@H](CCCN=C(N)N)C(N)=O [WKRWVQRWKRWLR]

MIC [6]: 4 µM (≈ 10.9 µg/mL)
MIC [7]: 4 µM (≈ 10.9 µg/mL)
MIC [8]: 2 µM (≈ 5.45 µg/mL)
MIC [9]: 2 µM (≈ 5.45 µg/mL)
MIC [10]: 1 µM (≈ 2.73 µg/mL)
MIC [11]: 1 µM (≈ 2.73 µg/mL)
Structure (SMILES): CC(C)C[C@H](NC(=O)[C@H](Cc1ccc(O)cc1)NC(=O)[C@H](Cc1cnc[nH]1)NC(=O)[C@@H](NC(=O)[C@H](CC(C)C)NC(=O)[C@H](C)NC(=O)[C@H](C)NC(=O)[C@H](CCCCN)NC(=O)CNC(=O)[C@@H](NC(=O)[C@H](Cc1cnc[nH]1)NC(=O)[C@H](CCCCN)NC(=O)[C@H](C)NC(=O)[C@@H](NC(=O)[C@H](Cc1cnc[nH]1)NC(=O)[C@H](C)NC(=O)[C@H](C)NC(=O)[C@H](CCCCN)NC(=O)[C@H](CCCCN)NC(=O)[C@H](Cc1ccccc1)NC(=O)[C@H](Cc1ccccc1)NC(=O)[C@H](CO)NC(=O)CNC(=O)[C@H](Cc1c[nH]c2ccccc12)NC(=O)CN)C(C)C)C(C)C)[C@@H](C)O)C(=O)O [GWGSFFKKAAHVAKHVGKAALTHYL]

MIC [12]: ≥ 500 µM
MIC [3]: 250 µM (≈ 355 µg/mL)
Structure (SMILES): CC[C@H](C)[C@@H]1NC(=O)[C@@H]2CCCN2C(=O)[C@H](CC(C)C)NC(=O)[C@@H]2CCCN2C(=O)[C@H]([C@@H](C)CC)NC(=O)[C@H](Cc2c[nH]c3ccccc23)NC(=O)[C@H](CO)NC(=O)[C@@H](NC(=O)[C@@H](NC(=O)[C@@H](N)CCCN=C(N)N)C(C)C)CSSC[C@@H](C(=O)N[C@@H](Cc2cnc[nH]2)C(N)=O)NC1=O [RVCSWIPLPICH]

MIC [13]: ≥ 50 µM
MIC [12]: 12.5 µM (≈ 24.8 µg/mL)
MIC [3]: 100 µM (≈ 199 µg/mL)
Structure (SMILES): CC[C@H](C)[C@H](NC(=O)[C@H](CCCCN)NC(=O)[C@@H](NC(=O)[C@@H](NC(=O)[C@H](CCCCN)NC(=O)CNC(=O)[C@H](CC(C)C)NC(=O)[C@@H](NC(=O)[C@H](CO)NC(=O)CNC(=O)[C@H](C)NC(=O)[C@H](CCCCN)NC(=O)[C@H](CO)NC(=O)[C@H](C)NC(=O)[C@H](CCSC)NC(=O)CN)C(C)C)[C@@H](C)CC)[C@@H](C)O)C(=O)N[C@@H](C)C(=O)N[C@@H](CC(C)C)C(=O)NCC(=O)N[C@@H](C)C(=O)N[C@@H](CC(C)C)C(N)=O [GMASKAGSVLGKITKIALGAL]

MIC [1]: 6.3 µM (≈ 24.5 µg/mL)
MIC [14]: 100 µM (≈ 389 µg/mL)
MIC [15]: 6.3 µM (≈ 24.5 µg/mL)
Structure (SMILES): CC[C@H](C)[C@H](NC(=O)[C@H](CCCCN)NC(=O)[C@@H](NC(=O)[C@H](CO)NC(=O)[C@H](CC(N)=O)NC(=O)[C@H](Cc1c[nH]c2ccccc12)NC(=O)[C@H](CC(C)C)NC(=O)CN)[C@@H](C)CC)C(=O)N[C@@H](C)C(=O)NCC(=O)N[C@@H](CCCCN)C(=O)N[C@@H](CCCCN)C(=O)N[C@@H](CC(C)C)C(=O)N[C@@H](Cc1ccccc1)C(=O)N[C@H](C(=O)N[C@@H](CC(N)=O)C(=O)N[C@H](C(=O)N[C@@H](CC(C)C)C(=O)N[C@@H](CC(=O)O)C(=O)N[C@@H](CCCCN)C(=O)N[C@H](C(=O)N[C@@H](CCCN=C(N)N)C(=O)N[C@H]1CSSC[C@@H](C(=O)N[C@@H](CCCCN)C(=O)N[C@H](C(=O)N[C@@H](CO)C(=O)N2CCC[C@H]2C(=O)N[C@@H](CC(=O)O)C(=O)N[C@H](C(=O)N[C@@H](CCC(=O)O)C(=O)O)C(C)C)[C@@H](C)O)NC(=O)CNC(=O)CNC(=O)[C@H](C)NC(=O)[C@H](C(C)C)NC(=O)[C@H](CCCCN)NC1=O)[C@@H](C)CC)C(C)C)C(C)C [GLWNSIKIAGKKLFVNVLDKIRCKVAGGCKTSPDVE]

MIC [12]: ≥ 40 µM
MIC [3]: 5 µM (≈ 14.9 µg/mL)
Structure (SMILES): CC[C@H](C)[C@H](NC(=O)[C@H](C)NC(=O)[C@@H](NC(=O)[C@H](C)NC(=O)CNC(=O)[C@H](CCCCN)NC(=O)[C@@H](NC(=O)[C@H](C)NC(=O)CNC(=O)[C@H](CCCCN)NC(=O)[C@H](CC(C)C)NC(=O)[C@@H](NC(=O)[C@H](CCCCN)NC(=O)[C@H](CCCCN)NC(=O)[C@H](CC(C)C)NC(=O)[C@@H](NC(=O)[C@H](CC(=O)O)NC(=O)[C@H](CCCCN)NC(=O)[C@@H](NC(=O)[C@H](CCC(=O)O)NC(=O)[C@@H]1CCCN1C(=O)[C@H](CO)NC(=O)[C@H](CC(C)C)NC(=O)[C@H](CCCCN)NC(=O)[C@@H](N)CC(C)C)[C@@H](C)O)[C@@H](C)O)C(C)C)[C@@H](C)CC)[C@@H](C)CC)C(=O)N[C@@H](C)C(=O)N[C@@H](CO)C(=O)N[C@@H](CC(C)C)C(=O)N[C@@H](C)C(N)=O [LKLSPETKDTLKKVLKGAIKGAIAIASLA]

MIC [4]: > 100 µM
MIC [1]: ≥ 100 µM
MIC (Klebsiella pneumoniae): > 100 µM
MIC [5]: > 100 µM
Structure (SMILES): CC[C@H](C)[C@H](NC(=O)[C@H](CCCCN)NC(=O)[C@H](CC(C)C)NC(=O)CNC(=O)[C@H](CC(C)C)NC(=O)[C@H](CO)NC(=O)[C@H](CCCN=C(N)N)NC(=O)[C@H](CC(C)C)NC(=O)CNC(=O)CNC(C)=O)C(=O)N[C@@H](CC(C)C)C(=O)N[C@@H](CC(C)C)C(=O)N[C@@H](C)C(=O)N[C@@H](Cc1c[nH]c2ccccc12)C(=O)N[C@@H](CCCCN)C(=O)N[C@@H](CCCCN)C(=O)N[C@@H](Cc1ccc(O)cc1)C(=O)NCC(N)=O [GGLRSLGLKILLAWKKYG]
